The supplement of paper PMC10307832

What was measured:
Test in all cases: relative viability (nuclei count vs DMSO), 5 days (fraction); higher = more cells survive
[1] = compound: C[C@@H](C(=O)N[C@@H](C1CCCCC1)C(=O)N2CCC[C@H]2C(=O)N[C@@H]3[C@@H](CC4=CC=CC=C34)OCC#CC#CCO[C@@H]5CC6=CC=CC=C6[C@@H]5NC(=O)[C@@H]7CCCN7C(=O)[C@H](C8CCCCC8)NC(=O)[C@H](C)NC)NC [AZD5582] + Cc1nc(NC(=O)N2CCC[C@H]2C(N)=O)sc1-c1ccnc(C(C)(C)C(F)(F)F)c1 [Alpelisib] (partner 2 µM)
Method in brief: (§1)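 Values are medians from duplicate plates. Each reflects relative viability, defined as the nuclei count of treated wells over that of vehicle wells. Lung cancer cell lines in 1536-well plates were pin-tool dosed one day after seeding with one drug alone or with a fixed anchor-drug dose plus five library-drug doses (not always all listed) in √10 steps, then fixed, stained and imaged at 4× after 5 days.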

[2] = compound: C[C@@H](C(=O)N[C@@H](C1CCCCC1)C(=O)N2CCC[C@H]2C(=O)N[C@@H]3[C@@H](CC4=CC=CC=C34)OCC#CC#CCO[C@@H]5CC6=CC=CC=C6[C@@H]5NC(=O)[C@@H]7CCCN7C(=O)[C@H](C8CCCCC8)NC(=O)[C@H](C)NC)NC [AZD5582] + Cc1nc(Nc2ncc(C(=O)Nc3c(C)cccc3Cl)s2)cc(N2CCN(CCO)CC2)n1 [Dasatinib] (partner 0.075 µM)
Method in brief: as §1

[3] = compound: Cn1nnc2c(C(N)=O)ncn2c1=O [Temozolomide] + COc1cc2c(Oc3ccc(NC(=O)C4(C(=O)Nc5ccc(F)cc5)CC4)cc3F)ccnc2cc1OCCCN1CCOCC1 [Foretinib] (partner 0.25 µM)
Method in brief: as §1

[4] = compound: Cn1nnc2c(C(N)=O)ncn2c1=O [Temozolomide] + C[C@@H](Oc1cc(-c2cnn(C3CCNCC3)c2)cnc1N)c1c(Cl)ccc(F)c1Cl [Crizotinib] (partner 1 µM)
Method in brief: as §1

| Cell Line | relative viability ([1]; first compound 0.001581 µM) | relative viability ([1]; first compound 0.005 µM) | relative viability ([1]; first compound 0.01581 µM) | relative viability ([1]; first compound 0.05 µM) | relative viability ([2]; first compound 0.001581 µM) | relative viability ([2]; first compound 0.005 µM) | relative viability ([2]; first compound 0.01581 µM) | relative viability ([2]; first compound 0.05 µM) | relative viability ([3]; first compound 0.2 µM) | relative viability ([3]; first compound 0.6325 µM) | relative viability ([3]; first compound 2 µM) | relative viability ([3]; first compound 6.325 µM) | relative viability ([3]; first compound 20 µM) | relative viability ([4]; first compound 0.2 µM) | relative viability ([4]; first compound 0.6325 µM) | relative viability ([4]; first compound 2 µM) | relative viability ([4]; first compound 6.325 µM) | relative viability ([4]; first compound 20 µM) |
| --- | --- | --- | --- | --- | --- | --- | --- | --- | --- | --- | --- | --- | --- | --- | --- | --- | --- | --- |
| NCI-H1755 | 0.875 | 0.918 | 0.874 | 0.996 | 0.398 | 0.456 | 0.356 | 0.363 | 0.979 | 0.93 | 0.908 | 0.873 | 0.722 | 1 | 0.894 | 0.894 | 0.805 | 0.678 |
| NCI-H1915 | 1.01 | 1.06 | 1.09 | 1.13 | 0.324 | 0.339 | 0.267 | 0.328 | 1.11 | 1.04 | 1 | 0.733 | 0.429 | 0.922 | 0.816 | 0.754 | 0.597 | 0.342 |
| NCI-H1944 | 0.834 | 1.05 | 0.793 | 1.11 | 0.244 | 0.228 | 0.227 | 0.238 | 0.756 | 0.922 | 0.847 | 0.875 | 0.795 | 0.817 | 1.08 | 1.18 | 1.06 | 0.975 |
| NCI-H1975 | 0.725 | 0.894 | 0.611 | 0.964 | 0.322 | 0.447 | 0.428 | 0.408 | 0.997 | 0.936 | 1.09 | 0.917 | 0.931 | 1.02 | 0.948 | 1.06 | 0.92 | 0.956 |
| NCI-H1993 | 0.706 | 0.669 | 0.647 | 0.671 | 0.634 | 0.576 | 0.557 | 0.573 | 0.81 | 0.722 | 0.807 | 0.72 | 0.672 | 0.779 | 0.85 | 0.876 | 0.94 | 0.703 |
| NCI-H2009 | 1.12 | 1.15 | 1.17 | 1.18 | 0.297 | 0.382 | 0.268 | 0.307 | 1.23 | 1.21 | 1.24 | 1.2 | 1.3 | 1.07 | 1.07 | 1.06 | 1.03 | 1.07 |
| NCI-H2023 | 0.562 | 0.538 | 0.567 | 0.609 | 0.521 | 0.581 | 0.553 | 0.49 | 0.825 | 0.749 | 0.847 | 0.68 | 0.848 | 0.64 | 0.631 | 0.678 | 0.516 | 0.648 |
| NCI-H2085 | 1 | 0.987 | 0.928 | 1.01 | 0.265 | 0.366 | 0.282 | 0.355 | 0.847 | 1.04 | 1.05 | 0.939 | 0.749 | 0.746 | 0.904 | 0.651 | 0.866 | 0.685 |
| NCI-H2087 | 1.08 | 1.01 | 1.13 | 1.19 | 0.7 | 0.915 | 0.848 | 0.945 | 1.23 | 1.16 | 1.19 | 1.23 | 1.04 | 0.898 | 0.74 | 0.892 | 0.803 | 0.871 |
| NCI-H2126 | 0.785 | 0.766 | 0.695 | 0.762 | 0.61 | 0.678 | 0.555 | 0.684 | 1.04 | 1.3 | 1.23 | 1.38 | 1.27 | 1.05 | 0.984 | 0.974 | 1.07 | 1.05 |
| NCI-H2170 | 0.764 | 0.809 | 0.867 | 0.969 | 0.494 | 0.571 | 0.558 | 0.471 | – | 1.01 | 1.05 | 0.993 | 0.526 | – | 1.26 | 1.21 | 0.999 | 0.494 |
| NCI-H2228 | 0.776 | 0.625 | 0.924 | 0.365 | 0.437 | 0.506 | 0.478 | 0.139 | 1.05 | 1.05 | 0.854 | 0.691 | 0.961 | 0.529 | 0.536 | 0.466 | 0.399 | 0.369 |
| NCI-H2347 | 0.901 | 1.05 | 0.975 | 0.991 | 0.304 | 0.663 | 0.341 | 0.303 | 1.11 | 1.03 | 1.42 | 0.773 | 0.982 | 0.695 | 0.712 | 0.715 | 0.651 | 0.645 |
| NCI-H2405 | 0.913 | 1.07 | – | 0.933 | 0.199 | 0.24 | 0.155 | 0.226 | 0.992 | 1.07 | 1.09 | 1.01 | 0.994 | 0.882 | 0.863 | 0.955 | 0.771 | 0.822 |
| NCI-H3122 | 0.774 | 0.858 | 0.836 | 0.307 | 0.729 | 0.707 | 0.802 | 0.185 | 0.915 | 0.924 | 1.07 | 1 | 0.946 | 0.291 | 0.281 | 0.324 | 0.264 | 0.235 |
| PC-3 [JPC-3] | 0.889 | 0.966 | 0.999 | 0.703 | 0.861 | 0.794 | 0.97 | 0.193 | 1.11 | 1.03 | 0.998 | 1.03 | 0.526 | 0.993 | 0.951 | 1.03 | 0.974 | 0.458 |
| PC-14 | 0.834 | 1.03 | 0.927 | 0.971 | 0.258 | 0.302 | 0.219 | 0.257 | 1.07 | 0.98 | 1.03 | 1.01 | 0.202 | 0.954 | 0.902 | 0.829 | 0.812 | 0.732 |
